Tests used:
Format in all cases: in vivo
Lolium perenne (LOLPE) = test: Glasshouse adjuvant test with pinoxaden (Example 8); conditions: pinoxaden 7.5 or 15 g/ha, adjuvant 0.2% v/v or none, 200 l/ha; growth stage 13; mean over two rates, three replicates, 14 and 21 days
Method: (§1) The adjuvant shown in example 1 was tested in a glasshouse against four weed species in combination with the herbicide pinoxaden. A 20% w/w stock emulsion of compound 1 was prepared additionally containing 2% w/w Gohsenol® GL03 and 2% w/w Pluronic® PE10500 as surfactants. Using this, an agrochemical composition was prepared containing 0.2% v/v of the adjuvant in a track sprayer and was applied at a volume of 200 liters per hectare. Pinoxaden was applied at either 7.5 or 15 grams of pesticide per hectare on each of the weed species. The weed species and their growth stage at spraying were Alopecurus myosuroides (ALOMY; growth stage 13), Avena fatua (AVEFA; growth stage 12); Lolium perenne (LOLPE; growth stage 13), Setaria viridis (SETVI; growth stage 14).
(§2) Each spray test was replicated three times. The efficacy of the herbicide was assessed visually and expressed as a percentage of the leaf area killed. Samples were assessed at time periods of 14 and 21 days following application. The results shown in Table 8 are mean averages over the two rates of pinoxaden, three replicates and the two assessment timings, and are compared to the efficacy of pinoxaden in the absence of adjuvant.

Avena fatua (AVEFA) = test: as above; conditions: pinoxaden 7.5 or 15 g/ha, adjuvant 0.2% v/v or none, 200 l/ha; growth stage 12; mean over two rates, three replicates, 14 and 21 days
Method: as §1, §2

[1] = test system: Alopecurus myosuroides (ALOMY); test: as above; conditions: pinoxaden 7.5 or 15 g/ha, adjuvant 0.2% v/v or none, 200 l/ha; growth stage 13; mean over two rates, three replicates, 14 and 21 days
Method: as §1, §2

Setaria viridis (SETVI) [2] = test: as above; conditions: pinoxaden 7.5 or 15 g/ha, adjuvant 0.2% v/v or none, 200 l/ha; growth stage 14; mean over two rates, three replicates, 14 and 21 days
Method: as §1, §2

[3] = test system: four weed species (ALOMY, AVEFA, LOLPE, SETVI); test: Glasshouse adjuvant test with pinoxaden (Example 8), mean across species; conditions: pinoxaden 7.5 or 15 g/ha, adjuvant 0.2% v/v or none
Method: as §1, §2

[4] = test system: Chenopodium album (CHEAL); test: Glasshouse adjuvant test with fomesafen (Example 3); conditions: fomesafen 60 or 120 g/ha, adjuvant 0.2% v/v or none, 200 l/ha; leaf area killed; mean over two rates, six replicates, 7 and 14 days
Method: (§3) Compound No. 2 was tested in a glasshouse against four weed species in combination with the herbicide fomesafen. An agrochemical composition was prepared containing 0.2% v/v of the adjuvant in a track sprayer and was applied at a volume of 200 liters per hectare. Fomesafen was applied at either 60 or 120 grams of pesticide per hectare on weeds which had been grown to the 1.3 or 1.4 leaf stage. The weed species were Chenopodium album (CHEAL), Abutilon theophrasti (ABUTH), Setaria viridis (SETVI), and Xanthium strumarium (XANST).
(§4) Each spray test was replicated six times. The efficacy of the herbicide was assessed visually and expressed as a percentage of the leaf area killed. Samples were assessed at time periods of 7 and 14 days following application. The results shown in Table 3 below are mean averages over the two rates of fomesafen, six replicates and the two assessment timings, and are compared to the efficacy of fomesafen in the absence of adjuvant.

[5] = test system: Abutilon theophrasti (ABUTH); test: as above; conditions: fomesafen 60 or 120 g/ha, adjuvant 0.2% v/v or none, 200 l/ha; leaf area killed; mean over two rates, six replicates, 7 and 14 days
Method: as §3, §4

[6] = test system: Xanthium strumarium (XANST); test: as above; conditions: fomesafen 60 or 120 g/ha, adjuvant 0.2% v/v or none, 200 l/ha; leaf area killed; mean over two rates, six replicates, 7 and 14 days
Method: as §3, §4

Setaria viridis (SETVI) [7] = test: as above; conditions: fomesafen 60 or 120 g/ha, adjuvant 0.2% v/v or none, 200 l/ha; leaf area killed; mean over two rates, six replicates, 7 and 14 days
Method: as §3, §4

[8] = test system: four weed species (ABUTH, CHEAL, SETVI, XANST); test: Glasshouse adjuvant test with fomesafen (Example 3), mean across species; conditions: fomesafen 60 or 120 g/ha, adjuvant 0.2% v/v or none
Method: as §3, §4

[9] = test system: Chenopodium album (CHEAL); test: Glasshouse adjuvant test with fomesafen (Example 5); conditions: fomesafen 60 or 120 g/ha, adjuvant 0.2% v/v or none, 200 l/ha; growth stage 13/14; mean over two rates, three replicates, 7, 14 and 21 days
Method: (§5) Compound 1 (N, N-diethyl-3-methylbenzamide) was tested in a glasshouse against four weed species using the herbicide fomesafen. An agrochemical composition was prepared containing 0.2% v/v of the adjuvant in a track sprayer and was applied at a volume of 200 liters per hectare. Fomesafen was applied at either 60 or 120 grams of pesticide per hectare on each of the weed species. The weed species and their growth stage at spraying were Chenopodium album (CHEAL; growth stage 13/14), Abutilon theophrasti (ABUTH; growth stage 12), Setaria viridis (SETVI; growth stage 13), and Xanthium strumarium (XANST; growth stage 12).
(§6) Each spray test was replicated three times. The efficacy of the herbicide was assessed visually and expressed as a percentage of the leaf area killed. Samples were assessed at time periods of 7, 14 and 21 days following application. The results shown in Table 5 below are mean averages over the two rates of fomesafen, three replicates and the three assessment timings, and are compared to the efficacy of fomesafen in the absence of adjuvant.

[10] = test system: Abutilon theophrasti (ABUTH); test: as above; conditions: fomesafen 60 or 120 g/ha, adjuvant 0.2% v/v or none, 200 l/ha; growth stage 12; mean over two rates, three replicates, 7, 14 and 21 days
Method: as §5, §6

[11] = test system: Xanthium strumarium (XANST); test: as above; conditions: fomesafen 60 or 120 g/ha, adjuvant 0.2% v/v or none, 200 l/ha; growth stage 12; mean over two rates, three replicates, 7, 14 and 21 days
Method: as §5, §6

Setaria viridis (SETVI) [12] = test: as above; conditions: fomesafen 60 or 120 g/ha, adjuvant 0.2% v/v or none, 200 l/ha; growth stage 13; mean over two rates, three replicates, 7, 14 and 21 days
Method: as §5, §6

[13] = test system: four weed species (CHEAL, ABUTH, SETVI, XANST); test: Glasshouse adjuvant test with fomesafen (Example 5), mean across species; conditions: fomesafen 60 or 120 g/ha, adjuvant 0.2% v/v or none
Method: as §5, §6

[14] = test system: Amaranthus tuberculatus (AMATE); test: Glasshouse adjuvant test with mesotrione (Example 6); conditions: mesotrione 45 or 90 g/ha, adjuvant 0.2% v/v or none, 200 l/ha; growth stage 13/14; mean over two rates, three replicates, 7, 14 and 21 days
Method: (§7) Compound 1 was tested in a glasshouse against four weed species using the herbicide mesotrione. A 20% w/w stock emulsion of compound 1 was prepared additionally containing 2% w/w Gohsenol® GL03 and 2% w/w Pluronic® PE10500 as surfactants. Using this, an agrochemical composition was prepared containing 0.2% v/v of the adjuvant in a track sprayer and was applied at a volume of 200 liters per hectare. Mesotrione was applied at either 45 or 90 grams of pesticide per hectare on each of the weed species. The weed species and their growth stage at spraying were Amaranthus tuberculatus (AMATE; growth stage 13/14), Brachiaria decumbens (BRADE; growth stage 13/14), Digitaria sanguinalis (DIGSA; growth stage 14), and Polygonum convolvulus (POLCO; growth stage 11/11.5).
as §6, with “Each” for “Each spray”, “6” for “5”, “mesotrione,” for “fomesafen,”, “mesotrione” for “fomesafen”, “in” for “in the”

[15] = test system: Digitaria sanguinalis (DIGSA); test: as above; conditions: mesotrione 45 or 90 g/ha, adjuvant 0.2% v/v or none, 200 l/ha; growth stage 14; mean over two rates, three replicates, 7, 14 and 21 days
Method: as §7
as §6, with “Each” for “Each spray”, “6” for “5”, “mesotrione,” for “fomesafen,”, “mesotrione” for “fomesafen”, “in” for “in the”

[16] = test system: Brachiaria decumbens (BRADE); test: as above; conditions: mesotrione 45 or 90 g/ha, adjuvant 0.2% v/v or none, 200 l/ha; growth stage 13/14; mean over two rates, three replicates, 7, 14 and 21 days
Method: as §7
as §6, with “Each” for “Each spray”, “6” for “5”, “mesotrione,” for “fomesafen,”, “mesotrione” for “fomesafen”, “in” for “in the”

[17] = test system: Polygonum convolvulus (POLCO); test: as above; conditions: mesotrione 45 or 90 g/ha, adjuvant 0.2% v/v or none, 200 l/ha; growth stage 11/11.5; mean over two rates, three replicates, 7, 14 and 21 days
Method: as §7
as §6, with “Each” for “Each spray”, “6” for “5”, “mesotrione,” for “fomesafen,”, “mesotrione” for “fomesafen”, “in” for “in the”

[18] = test system: four weed species (AMATE, BRADE, DIGSA, POLCO); test: Glasshouse adjuvant test with mesotrione (Example 6), mean across species; conditions: mesotrione 45 or 90 g/ha, adjuvant 0.2% v/v or none
[19] = test system: Digitaria sanguinalis (DIGSA); test: Glasshouse adjuvant test with nicosulfuron (Example 7); conditions: nicosulfuron 30 or 60 g/ha, adjuvant 0.2% v/v or none, 200 l/ha; growth stage 13; mean over two rates, three replicates, 14 and 21 days
Method: (§8) Compound 1 was tested in a glasshouse against four weed species using the herbicide nicosulfuron. A 20% w/w stock emulsion of compound 1 was prepared additionally containing 2% w/w Gohsenol® GL03 and 2% w/w Pluronic® PE10500 as surfactants. Using this, an agrochemical composition was prepared containing 0.2% v/v of the adjuvant in a track sprayer and was applied at a volume of 200 liters per hectare. Nicosulfuron was applied at either 30 or 60 grams of pesticide per hectare on each of the weed species. The weed species and their growth stage at spraying were Abutilon theophrasti (ABUTH; growth stage 13), Chenopodium album (CHEAL; growth stage 14), Digitaria sanguinalis (DIGSA; growth stage 13), and Setaria viridis (SETVI; growth stage 13).
(§9) Each spray test replicated three times. The efficacy of the herbicide was assessed visually and expressed as a percentage of the leaf area killed. Samples were assessed at time periods of 14 and 21 days following application. The results shown in Table 7 below are mean averages over the two rates of nicosulfuron, three replicates and the two assessment timings, and are compared to the efficacy of nicosulfuron in the absence of an adjuvant.

[20] = test system: Chenopodium album (CHEAL); test: as above; conditions: nicosulfuron 30 or 60 g/ha, adjuvant 0.2% v/v or none, 200 l/ha; growth stage 14; mean over two rates, three replicates, 14 and 21 days
Method: as §8, §9

[21] = test system: Abutilon theophrasti (ABUTH); test: as above; conditions: nicosulfuron 30 or 60 g/ha, adjuvant 0.2% v/v or none, 200 l/ha; growth stage 13; mean over two rates, three replicates, 14 and 21 days
Method: as §8, §9

Setaria viridis (SETVI) [22] = test: as above; conditions: nicosulfuron 30 or 60 g/ha, adjuvant 0.2% v/v or none, 200 l/ha; growth stage 13; mean over two rates, three replicates, 14 and 21 days
Method: as §8, §9

[23] = test system: four weed species (ABUTH, CHEAL, DIGSA, SETVI); test: Glasshouse adjuvant test with nicosulfuron (Example 7), mean across species; conditions: nicosulfuron 30 or 60 g/ha, adjuvant 0.2% v/v or none
Method: as §8, §9

CCc1cc(C)cc(CC)c1-c1c(OC(=O)C(C)(C)C)n2n(c1=O)CCOCC2 [Pinoxaden, pinoxaden, reference compound]
Mean percentage kill LOLPE (Lolium perenne (LOLPE)): 12.5% | Mean percentage kill AVEFA (Avena fatua (AVEFA)): 20.8% | Mean percentage kill ALOMY [1]: 21.2% | Mean percentage kill SETVI (Setaria viridis (SETVI) [2]): 15% | Mean percentage kill, Mean across species [3]: 17.4%

CS(=O)(=O)NC(=O)c1cc(Oc2ccc(C(F)(F)F)cc2Cl)ccc1[N+](=O)[O-] [fomesafen, reference compound]
Mean percentage kill CHEAL [4]: 43.3% | Mean percentage kill ABUTH [5]: 60.8% | Mean percentage kill XANST [6]: 45.8% | Mean percentage kill SETVI (Setaria viridis (SETVI) [7]): 38.2% | Mean percentage kill, Mean across species [8]: 47.0% | Mean percentage kill CHEAL [9]: 77.5% | Mean percentage kill ABUTH [10]: 20% | Mean percentage kill XANST [11]: 42.8% | Mean percentage kill SETVI (Setaria viridis (SETVI) [12]): 10.6% | Mean percentage kill, Mean across species [13]: 37.7%

CS(=O)(=O)c1ccc(C(=O)C2C(=O)CCCC2=O)c([N+](=O)[O-])c1 [mesotrione, reference compound]
Mean percentage kill AMATE [14]: 65.6% | Mean percentage kill DIGSA [15]: 23% | Mean percentage kill BRADE [16]: 26.7% | Mean percentage kill POLCO [17]: 73.3% | Mean percentage kill, Mean across species [18]: 47.1%

COc1cc(OC)nc(NC(=O)NS(=O)(=O)c2ncccc2C(=O)N(C)C)n1 [nicosulfuron, reference compound]
Mean percentage kill DIGSA [19]: 87.9% | Mean percentage kill CHEAL [20]: 50.8% | Mean percentage kill ABUTH [21]: 69.2% | Mean percentage kill SETVI (Setaria viridis (SETVI) [22]): 92% | Mean percentage kill, Mean across species [23]: 75%
